Each compound was assayed on Cryptosporidium parvum (assay: Assay for the ability of tetracycline compounds to control Cryptosporidium parvum infection in vitro (indirect immunofluorescence parasite count)). Details: C. parvum GCH1 oocysts in MDCK/MDBK cell monolayers, 48 hour incubation, IF parasite count, class by concentration giving 70% inhibition.
Format: cell-based
Description: This assay is designed to test the ability of a tetracycline compound to control Cryptosporidium parvum infection in vitro. […] MDCK cells were grown in 96-well microtiter plastic plates, and were seeded with approximately 5×10^4 cells per well, using DMEM as the growth/maintenance medium with 10% FCS. Plates were normally grown to confluence 2–3 days after having been seeded with bleached, less than four week-old, C. parvum oocysts. The C. parvum isolate used most often was the human-derived, calf-propagated GCH1 (Tzipori, Clin. Diagn. Lab. Immunol. (1994) 1:450; Tzipori, J. Infect. Dis. (1995) 172:1160). The DMEM medium was also added to the negative control wells. The tetracycline compounds and the oocysts were added to the wells concurrently. The cells were subsequently monitored twice daily and any apparent morphologic changes were recorded. The monolayers were fixed with methanol after 48 hour incubation at 37° C. in 8% CO2. […] The tetracycline compounds were used at various concentrations (0.1–2000 μg/mL) and were dissolved directly into the culture medium. A conventional indirect immunofluorecensce (IF) assay was used to detect and enumerate parasite forms after 48-hour incubation. For the purposes of this assay, a polyclonal rabbit anti-sporozoite antibody was produced. […] The secondary antibody, a fluoroscein-conjugated goat anti-rabbit IgG, was used at a concentration of 1:100, according the manufacturer's instructions. The primary antibody was added after fixation for thirty minutes and after vigorous washing, the secondary antibody was incubated for another thirty minutes. The dried microtiter plate was viewed with an inverted microscope (x10 mag.), under ultraviolet light. For parasite counts, a semi-automated video imaging MCID system was used to facilitate the enumeration and analysis of the parasite data. In Table 1, good inhibition of C. parvum is indicated by ‘*’ (e.g., 70% inhibition at concentrations above 10 μg/ml and above) and very good inhibition of C. parvum is indicated by ‘**’ (e.g., 70% inhibition at concentrations below 10 μg/ml).

`CCC(=O)O[C@H]1C2C(=C(O)[C@]3(O)C(=O)C(C(N)=O)=C(O)[C@@H](N(C)C)C13)C(=O)c1c(O)cccc1[C@@H]2CSC1CCCC1` (some centres unmarked) and `CN(C)[C@@H]1C(O)=C(C(N)=O)C(=O)[C@@]2(O)C(O)=C3C(=O)c4c(O)cccc4[C@H](CSC4CCCC4)C3[C@H](O)C12` (some centres unmarked) cannot be ordered by IC70: < 10 µg/mL for the first, < 10 µg/mL for the second.

`CCC(=O)O[C@H]1C2C(=C(O)[C@]3(O)C(=O)C(C(N)=O)=C(O)[C@@H](N(C)C)C13)C(=O)c1c(ccc(C(C)(C)C)c1O)[C@@H]2C` (some centres unmarked) and `C[C@H]1c2ccc(C(C)(C)C)c(O)c2C(=O)C2=C(O)[C@]3(O)C(=O)C(C(N)=O)=C(O)[C@@H](N(C)C)C3[C@@H](O)C21` (some centres unmarked) cannot be ordered by IC70: ≥ 10 µg/mL for the first, < 10 µg/mL for the second.

`CN(C)[C@@H]1C(O)=C(C(N)=O)C(=O)[C@@]2(O)C(O)=C3C(=O)c4c(O)cccc4SC3[C@H](O)C12` (some centres unmarked) and `C[C@H]1c2cccc(O)c2C(=O)C2=C(O)[C@]3(O)C(=O)C(C(N)=O)=C(O)[C@@H](N(C)C)C3[C@@H](O)C21` (some centres unmarked) cannot be ordered by IC70: ≥ 10 µg/mL for the first, ≥ 10 µg/mL for the second.

`C[C@H]1c2ccc(C3=CCCC3)c(O)c2C(=O)C2=C(O)[C@]3(O)C(=O)C(C(N)=O)=C(O)[C@@H](N(C)C)C3[C@@H](O)C21` (some centres unmarked) and `CN(C)c1cc(C#CC2=CCCCC2)c(O)c2c1CC1CC3[C@H](N(C)C)C(O)=C(C(N)=O)C(=O)[C@@]3(O)C(O)=C1C2=O` (some centres unmarked) cannot be ordered by IC70: < 10 µg/mL for the first, < 10 µg/mL for the second.

From US7202235B2, “Tetracycline compounds for treatment of cryptosporidium parvum related disorders” (Trustees of Tufts College, priority 2000, dated 2007)
